From publication PMC7735645 (Journal of the American Chemical Society, 2019) come the findings set out here.

One may read the IC50 as the concentration that gives 50% inhibition.

For data set [1], the system named is A549 cells. The experiment in a line: NPM1 relocalization. The format is cell-based. As to conditions: for NPM1 redistribution: free ligand alone, Figures S2 and S3.
In another data set the test system is DNA damage. The experiment in a line: DNA damage in treated cells. The format is cell-based. Particulars: early time points, unpublished data from the authors' lab.
Data set [2] relates to A549 cells. The experiment in a line: 24 h IC50. As to conditions: read-out: 24 h IC50 value, Table S1. Type of data set: cell-based.
Data set [3] in a line: water/octanol partition coefficient. Type of data set: physicochemical.
The mark [4] stands for this setting: A549 cells, 24 h treatment, 10 μM.

Consider `NC1CCCCC1N` (stereo not drawn) [DACH ligand, diaminocyclohexane, reference compound], for which the NPM1 redistribution result with A549 cells [1] is “no influence on NPM1 redistribution”.

Consider `N.N.[Cl][Pt][Cl]` [compound 1, cisplatin, reference compound], for which the “NPM1 redistribution / nucleolar stress induction” value in the data set on A549 cells [1] (setting [4]) is “more closely resembles that of the no-treatment control”; with A549 cells [1] (A549 cells, 24 h treatment, 10 μM, listed as cisplatin), “a small amount of NPM1 redistribution was observed”. In addition, in the data set with DNA damage, the “DNA damage relative to NPM1 relocation” value is listed as “DNA damage occurs at early time points”.

On to `O=C1[O][Pt]2([NH][C@@H]3CCCC[C@H]3[NH]2)[O]C1=O` [compound 2, oxaliplatin, reference compound], for which the “NPM1 redistribution / nucleolar stress induction” value is “induces robust redistribution of NPM1” with A549 cells [1] (setting [4]) and “robust NPM1 relocalization” in the data set with A549 cells [1] (A549 cells, 24 h treatment, 10 μM, listed as Oxaliplatin). In addition, in the data set with A549 cells [2], the IC50 turned out to be 81.5 µM. Further, in the data set on DNA damage, the “DNA damage relative to NPM1 relocation” value is recorded as “no such damage occurs prior to observed NPM1 distribution”.

As for `[NH2][Pt]1([NH2])[O]C(=O)C2(CCC2)C(=O)[O]1` [compound 3, carboplatin, reference compound], in the data set with A549 cells [1] (setting [4]), the “NPM1 redistribution / nucleolar stress induction” value was “more closely resembles that of the no-treatment control”.

Turning to `NC1CCCCC1N.[Cl][Pt][Cl]` (stereo not drawn) [compound 4, DACHPt], in data set [3], the “relative hydrophobicity (water/octanol partition coefficient, log P)” value is reported as “more hydrophobic than the simpler diam(m)ine compounds”. Also, the “NPM1 redistribution / nucleolar stress induction” value in the data set on A549 cells [1] (setting [4]) was “induces robust nucleolar stress”.

With `N.N.O=C([O-])C(=O)[O-].[Pt+2]` [compound 5, DOAP], the “NPM1 redistribution / nucleolar stress induction” value in the data set on A549 cells [1] (setting [4]) is “does not induce stress”.

For the compound `O=C(O)C(=O)O` [oxalic acid ligand, oxalic acid, reference compound], in the data set on A549 cells [1], the NPM1 redistribution result is given as “no influence on NPM1 redistribution”.

As to Pentaplatin [compound 9], in the data set on A549 cells [1] (setting [4]), the “NPM1 redistribution / nucleolar stress induction” value is reported as “found to induce nucleolar stress” and the “coefficient of variation (CV) of NPM1 intensity” value is recorded as “slightly higher resultant CV than positive controls or oxaliplatin”.
